Data as given in patent US7387798B2, “Method and composition for resuscitation” (priority 2004, dated 2008).
Entries after “also recorded” stand apart in the source; their conditions may differ.

Key:
cultured neurons = settings: continuous application, 100 μM; cited from earlier work
[1] = Neural protective effect of colloid osmotic agents and Polypeptides (stated, no method given); settings: general statement, no experiment described

| Molecule | axonal transport of membrane-bound organelles in anterograde and retrograde directions (cultured neurons) | protecting the CNS tissue (neural protective effect) [1] |
| --- | --- | --- |
| Nc1ncnc2c1ncn2[C@@H]1O[C@H](COP(=O)(O)OP(=O)(O)OP(=O)(O)O)[C@@H](O)[C@H]1O [ATP, Adenosine 5′-triphosphate] | significantly increased |  |
| O=c1ccn([C@@H]2O[C@H](COP(=O)(O)OP(=O)(O)OP(=O)(O)O)[C@@H](O)[C@H]2O)c(=O)[nH]1 [Uridine 5′-triphosphate] | effect similar to ATP |  |
| Collagen |  | effective |
| Dextran |  | ineffective; also recorded: do not confer neuroprotective effect |
| Hetastarch |  | ineffective |
| albumin |  | effective |
